For data set [1], the system named is Podosphaera leucotricha. Put plainly: Podosphaera test (apple)/protective. To be noted: protective, application rate 100 g/ha, evaluation 10 days after inoculation. It counts as in vivo. As for the experimental part:
Podosphaera Test (Apple)/Protective • Solvent: 24.5 parts by weight of acetone • 24.5 parts by weight of dimethylacetamide • Emulsifier: 1 part by weight of alkylaryl polyglycol ether
To produce a suitable preparation of active compound, 1 part by weight of active compound is mixed with the stated amounts of solvent and emulsifier and the concentrate is diluted with water to the desired concentration.
To test for protective activity, the young plants are sprayed with the active compound preparation at the application rate indicated. After the spray coating has dried on, the plants are inoculated with an aqueous spore suspension of the apple mildew causative organism Podosphaera leucotricha. The plants are then placed in a greenhouse at about 23° C. and at a relative humidity of about 70%.
Evaluation is made 10 days after inoculation. 0% denotes an efficacy corresponding to that of the control, while an efficacy of 100% denotes that no infestation is observed.

The test system of data set [2] is Sphaerotheca fuliginea. Nature of the data set: Spaerotheca test (cucumber)/protective. The conditions noted are these: protective, application rate 750 g/ha, evaluation 7 days after inoculation. The data set is classed as in vivo. As for the experimental part:
Spaerotheca Test (Cucumber)/Protective • Solvent: 49 parts by weight of N,N-dimethylformamide • Emulsifier: 1 part by weight of alkylaryl polyglycol ether To produce a suitable preparation of active compound, 1 part by weight of active compound is mixed with the stated amounts of solvent and emulsifier and the concentrate is diluted with water to the desired concentration. To test for protective activity, the young cucumber plants are sprayed with the active compound preparation at the application rate indicated. 1 day after treatment, the plants are inoculated with a spore suspension of Sphaerotheca fuliginea. The plants are then placed in a greenhouse at a temperature of 23° C. and at a relative humidity of 70%. Evaluation is made 7 days after inoculation. 0% denotes an efficacy corresponding to that of the control, while an efficacy of 100% denotes that no infestation is observed.

Data set [3] in a line: log P by HPLC. The data set is classed as physicochemical. To be noted: HPLC, gradient method, acetonitrile/0.1% aqueous phosphoric acid; EEC directive 79/831 Annex V. A8.
The subject of data set [4] is Puccinia recondita. Put plainly: Puccinia test (wheat)/protective. It counts as in vivo. The conditions noted are these: protective, application rate 500 g/ha, evaluation 10 days after inoculation. As for the experimental part: Puccinia Test (Wheat)/Protective • Solvent: 25 parts by weight of N,N-dimethylacetamide • Emulsifier: 0.6 part by weight of alkylaryl polyglycol ether To produce a suitable preparation of active compound, 1 part by weight of active compound is mixed with the stated amounts of solvent and emulsifier and the concentrate is diluted with water to the desired concentration. To test for protective activity, the young plants are sprayed with the active compound preparation at the application rate indicated. After the spray coating has dried on, the plants are sprayed with a conidia suspension of Puccinia recondita. The plants spend 48 hours at 20° C. and 100% relative humidity in an incubation cabin. The plants are then placed in a greenhouse at a temperature of about 20° C. and a relative humidity of 80% in order to promote the development of rust pustules. Evaluation is made 10 days after inoculation. 0% denotes an efficacy corresponding to that of the control, while an efficacy of 100% denotes that no infestation is observed.

As a reminder, the chromatographic logP is a lipophilicity value derived from retention on a column.

For `Fc1cc(F)c(-c2c(Cl)nc3nc(C(F)(F)F)nn3c2NCCC(F)(F)F)c(F)c1` [Example 7], the Efficacy in % in data set [1] and in data set [2] was 100% in each case. In addition, the chromatographic logP in data set [3] is 3.76.
With `C[C@H](Nc1c(-c2c(F)cc(F)cc2F)c(Cl)nc2nc(C(F)(F)F)nn12)C(F)(F)F` [Example 3], the Efficacy in % came out at 100% in data set [4] and 93% in data set [2]. In data set [3], this compound displayed a chromatographic logP of 3.94.
